Test results: publication PMC8587849, “Antimicrobial and Anticancer Application of Silver(I) Dipeptide Complexes” (Molecules, 2021)
Where two headings read alike, the source gives them in different places. Where a SMILES comes first, the peptide text is derived from it.

Key:
[1] = test system: BJ-5ta; test: MTS assay on fibroblasts; format: cell-based; settings: BJ-5ta human skin fibroblasts, 72 h
Procedure: (§1) After 72 h of incubation, 10 µL of MTS was added to each well. […] IC50 values were calculated from MTS analyses.

[2] = test system: Escherichia coli (E. coli) CCM 3988; test: Antibacterial activity, macrodilution method; format: cell-based; settings: free ligands
Procedure: (§3) Cultures of bacteria (in Mueller-Hinton broth, MHB) and yeasts (in Sabouraud’s growth medium, SB) were incubated under shaking (250 rpm) at 37 °C. The growth of bacteria and yeasts was evaluated by measuring the absorbance of the growing cultures (A550) until the cultures reached the stationary growth phase. […] The final concentration of DMSO never exceeded 1.0 vol. % in the control or treated samples. […] The IC50 and MIC90 with respect to MIC80 values were evaluated from toxicity curves.

[3] = test system: Alternaria alternata CCM F-128; test: Antifungal activity (filamentous fungi), macrodilution on solidified PDA; format: cell-based; settings: A. alternata, read-out: IC50 and MIC100 (class symbol)
Procedure: (§4) Cultures of bacteria (in Mueller-Hinton broth, MHB) and yeasts (in Sabouraud’s growth medium, SB) were incubated under shaking (250 rpm) at 37 °C. The growth of bacteria and yeasts was evaluated by measuring the absorbance of the growing cultures (A550) until the cultures reached the stationary growth phase. […] During culturing, the diameters of growing fungal colonies were measured at regular intervals [71, 72]. […] The final concentration of DMSO never exceeded 1.0 vol. % in the control or treated samples. […] The IC50 and MIC90 with respect to MIC80 values were evaluated from toxicity curves.

[4] = test system: HeLa; test: MTS antiproliferative assay; format: cell-based, human; settings: 72 h
Procedure: as §1

[5] = test system: MCF-7; test: MTS antiproliferative assay; format: cell-based, human; settings: 72 h
Procedure: as §1

[6] = test system: Microsporum gypseum CCM F-8342; test: Antifungal activity (filamentous fungi), macrodilution on solidified PDA; format: cell-based; settings: M.gypseum, read-out: IC50 and MIC100 (class symbol)
Procedure: as §4

[7] = test system: Candida parapsilosis ATCC 22019; test: Antifungal activity (yeast), macrodilution method; format: cell-based; settings: C. parapsilosis
Procedure: as §3

[8] = test system: Rhizopus oryzae CCM F-8284; test: Antifungal activity (filamentous fungi), macrodilution on solidified PDA; format: cell-based
Procedure: as §4

[9] = test system: Staphylococcus epidermidis CCM 7221; test: Antibacterial activity, macrodilution method; format: cell-based; settings: S.epidermidis; free ligands
Procedure: as §3

[10] = test system: Candida albicans SC 5314; test: Antifungal activity (yeast), macrodilution method; format: cell-based; settings: C. albicans
Procedure: as §4

[11] = test system: Staphylococcus aureus CCM 3953; test: Antibacterial activity, macrodilution method; format: cell-based; settings: S. aureus; free ligands
Procedure: as §3

[12] = test system: MDA-MB-231; test: MTS antiproliferative assay; format: cell-based, human; settings: 72 h
Procedure: (§2) Cells were maintained in standard conditions with an atmosphere containing 5% CO2 at 37 °C.
as §1

[13] = test system: BLM; test: MTS antiproliferative assay; format: cell-based, human; settings: BLM; MTS, 72 h
Procedure: as §2, §1

[14] = test system: Jurkat; test: MTS antiproliferative assay; format: cell-based, human; settings: 72 h
Procedure: as §2, §1

[15] = test system: HCT116; test: MTS antiproliferative assay; format: cell-based, human; settings: 72 h
Procedure: as §2, §1

[16] = test system: A.flavus; test: Antifungal activity (filamentous fungi); format: cell-based; settings: read-out: IC50 and MIC100 (class symbol)
Procedure: as §4

[17] = test system: methicillin-resistant Staphylococcus aureus L12; test: Antibacterial activity, macrodilution method; format: cell-based; settings: S. aureus L12; free ligands
Procedure: as §3

[18] = read-out: IC50 and MIC100 (class symbol)

SMILES | IC50 [1] | IC50 and MIC90 (class symbol) [2] | IC50 [3] | IC50 [4] | IC50 [5] | IC50 [6] | IC50 and MIC80 (class symbol) [7] | IC50 [8, 18] | IC50 and MIC90 (class symbol) [9] | IC50 and MIC80 (class symbol) [10] | IC50 and MIC90 (class symbol) [11] | IC50 [12] | IC50 [13] | IC50 [14] | IC50 [15] | IC50 [16] | IC50 and MIC90 (class symbol) [17] | further results
NCC(=O)N[C@@H](CC(=O)O)C(=O)O [H2GlyAsp, Glycyl-L-Aspartic acid, reference compound] (H-Gly-Asp-OH) | > 300 µM | N (N- not active IC50 and MIC90 values > 2 mmol.l-1) | > 2000 µM | > 300 µM | > 300 µM | > 2000 µM | N (N- not active IC50 and MIC values > 2 mmol.l-1) | > 2000 µM | N (N- not active IC50 and MIC90 values > 2 mmol.l-1) | N (N- not active IC50 and MIC values > 2 mmol.l-1) | N (N- not active IC50 and MIC90 values > 2 mmol.l-1) | > 300 µM | > 300 µM | > 300 µM | > 300 µM | > 2000 µM | N (N- not active IC50 and MIC90 values > 2 mmol.l-1) | –
C[C@H](NC(=O)CN)C(=O)O [HGlyAla, Glycyl-L-Alanine, reference compound] (H-Gly-Ala-OH) | > 300 µM | N (N- not active IC50 and MIC90 values > 2 mmol.l-1) | > 2000 µM | > 300 µM | > 300 µM | > 2000 µM | N (N- not active IC50 and MIC values > 2 mmol.l-1) | > 2000 µM | N (N- not active IC50 and MIC90 values > 2 mmol.l-1) | N (N- not active IC50 and MIC values > 2 mmol.l-1) | N (N- not active IC50 and MIC90 values > 2 mmol.l-1) | > 300 µM | > 300 µM | > 300 µM | > 300 µM | > 2000 µM | N (N- not active IC50 and MIC90 values > 2 mmol.l-1) | –
C[C@H](N)C(=O)O [Ala, alanine, reference compound] | – | N (N- not active IC50 and MIC90 values > 2 mmol.l-1) | – | – | – | – | N (N- not active IC50 and MIC values > 2 mmol.l-1) | – | N (N- not active IC50 and MIC90 values > 2 mmol.l-1) | N (N- not active IC50 and MIC values > 2 mmol.l-1) | N (N- not active IC50 and MIC90 values > 2 mmol.l-1) | – | – | – | – | – | N (N- not active IC50 and MIC90 values > 2 mmol.l-1) | IC50 ([3]; Alternaria alternata, CCMF128): > 2000 µM; IC50 ([6]; Nannizzia gypsea, CCMF8342): > 2000 µM; IC50 ([8]; Rhizopus arrhizus, CCMF8284, read-out: IC50 and MIC100 (class symbol)): > 2000 µM; IC50 ([16]; Aspergillus flavus): > 2000 µM
NCC(=O)NCC(=O)O [HGlyGly, Glycyl-L-Glycine, reference compound] (H-Gly-Gly-OH) | – | N (N- not active IC50 and MIC90 values > 2 mmol.l-1) | > 2000 µM | – | – | > 2000 µM | N (N- not active IC50 and MIC values > 2 mmol.l-1) | > 2000 µM | N (N- not active IC50 and MIC90 values > 2 mmol.l-1) | N (N- not active IC50 and MIC values > 2 mmol.l-1) | N (N- not active IC50 and MIC90 values > 2 mmol.l-1) | – | – | – | – | > 2000 µM | N (N- not active IC50 and MIC90 values > 2 mmol.l-1) | –
